Laboratory results reported in the supplement of paper PMC4862054.

Columns and labels:
Experiment in all cases: normalised response (% of control), CellTiter-Glo; higher = more viable cells (100 = DMSO, 0 = benzethonium chloride kill control)
Settings in all cases: incubation time: 72 h
[1] = system: CAL-120
How it was run: (§1)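 Plates were normalised with 0.1 % DMSO as 100 and a positive kill control as 0. Breast cancer cell lines in 20 µl suspension had been seeded into 384-well plates with compound at 5 concentrations in 10-fold steps over a compound-specific 10,000-fold range, incubated 72 h, and read for CellTox Green fluorescence (485/520 nm) followed by CellTiter-Glo luminescence. Each value is the normalised signal at a single concentration.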

[2] = system: CAL-85-1
How it was run: as §1

[3] = system: CAL-148
How it was run: as §1

[4] = system: HCC1143
How it was run: as §1

[5] = system: HCC1937
How it was run: as §1

[6] = system: MFM-223
How it was run: as §1

[7] = system: BT-549
How it was run: as §1

[8] = system: Hs578T
How it was run: as §1

[9] = system: MDA-MB-231
How it was run: as §1

[10] = system: HDQ-P1
How it was run: as §1

[11] = system: BT-474
How it was run: as §1

[12] = system: DU-4475
How it was run: as §1

[13] = system: MDA-MB-436
How it was run: as §1

[14] = system: MDA-MB-453
How it was run: as §1

[15] = system: CAL-51
How it was run: as §1

[16] = system: HCC1599
How it was run: as §1

[17] = system: MCF-10A
How it was run: as §1

[18] = system: MDA-MB-468
How it was run: as §1

[19] = system: SK-BR-3
How it was run: as §1

SMILES | normalised response [1] | normalised response [2] | normalised response [3] | normalised response [4] | normalised response [5] | normalised response [6] | normalised response [7] | normalised response [8] | normalised response [9] | normalised response [10] | normalised response [11] | normalised response [12] | normalised response [13] | normalised response [14] | normalised response [15] | normalised response [16] | normalised response [17] | normalised response [18] | normalised response [19]
Cn1c(=O)n(-c2ccc(C(C)(C)C#N)cc2)c2c3cc(-c4cnc5ccccc5c4)ccc3ncc21 [Dactolisib] (1 nM) | 90.2% | 101% | 116% | 98.5% | 98.7% | 108% | 101% | 95.7% | 107% | 95% | 106% | 107% | 95.8% | 110% | 83.4% | 95.8% | 113% | 103% | 
C[C@]12CC[C@H](O)CC1=CC[C@@H]1[C@@H]2CC[C@]2(C)C(c3cccnc3)=CC[C@@H]12 [Abiraterone] (0.5 nM) | 97.6% | 106% | 108% | 94.7% | 96.2% | 98% | 105% | 102% | 105% | 106% | 104% | 94.5% | 94.7% | 114% | 95.7% | 119% | 102% | 109% | 106%
CN(C)CCN1C(=O)c2cccc3cc(N)cc(c23)C1=O [Amonafide] (1 nM) | 99.7% | 101% | 99.9% | 94% | 99.3% | 103% | 101% | 97.6% | 102% | 97.3% | 104% | 101% | 100% | 105% | 120% | 102% | 88.6% | 94.7% | 103%
CN(C)C[C@@H]1CCn2cc(c3ccccc32)C2=C(C(=O)NC2=O)c2cn(c3ccccc23)CCO1 [Ruboxistaurin] (1 nM) | 90.3% | 96.7% | 97.7% | 94.4% | 94.6% | 98.6% | 96.9% | 96.7% | 97.9% | 101% | 95.3% | 99.8% | 105% | 98.9% | 129% | 99.2% | 106% | 106% | 98.4%
C[C@]12CC[C@H](O)CC1=CC[C@@H]1[C@@H]2CC[C@]2(C)C(c3cccnc3)=CC[C@@H]12 [Abiraterone] (5 nM) | 95.7% | 110% | 91.8% | 101% | 94.6% | 97.5% | 95.6% | 104% | 106% | 99.5% | 107% | 109% | 103% | 116% | 136% | 116% | 102% | 99% | 111%
O=C1NC(=O)[C@@H](c2cn3c4c(cccc24)CCC3)[C@@H]1c1c[nH]c2ccccc12 [Tivantinib] (1 nM) | 100% | 96.1% | 100% | 98.9% | 101% | 97.9% | 101% | 101% | 98.2% | 98.7% | 107% | 98% | 109% | 106% | 106% | 104% | 106% | 104% | 113%
CO[C@H]1C[C@@H]2CC[C@@H](C)[C@@](O)(O2)C(=O)C(=O)N2CCCC[C@H]2C(=O)O[C@H]([C@H](C)C[C@@H]2CC[C@@H](OCCO)[C@H](OC)C2)CC(=O)[C@H](C)/C=C(\C)[C@@H](O)[C@@H](OC)C(=O)[C@H](C)C[C@H](C)/C=C/C=C/C=C/1C [Everolimus] (0.1 nM) | 95.9% | 90% | 80.7% | 92% | 88% | 88.4% | 88% | 89.5% | 99.2% | 94.4% | 92% | 95% | 90.7% | 95.8% | 115% | 90.5% | 96% | 84.8% | 92%
CNNCc1ccc(C(=O)NC(C)C)cc1 [Procarbazine] (1 nM) | 101% | 103% | 104% | 112% | 111% | 105% | 111% | 108% | 104% | 104% | 102% | 103% | 101% | 108% | 88.6% | 109% | 111% | 104% | 112%
C/C(=C\c1csc(C)n1)[C@@H]1C[C@@H]2O[C@]2(C)CCC[C@H](C)[C@H](O)[C@@H](C)C(=O)C(C)(C)[C@@H](O)CC(=O)O1 [Patupilone] (0.1 nM) | 104% | 104% | 113% | 97.6% | 98% | 103% | 98.7% | 99.3% | 101% | 105% | 110% | 106% | 98% | 101% | 81.4% | 108% | 102% | 107% | 98%
c1ccc([C@H]2CN3CCSC3=N2)cc1 [Levamisole] (1 nM) | 98.1% | 99.9% | 113% | 103% | 99.4% | 106% | 106% | 105% | 107% | 104% | 106% | 105% | 97.4% | 112% | 69.9% | 106% | 107% | 112% | 109%
Nc1nc(OCc2cc(Br)cs2)c2[nH]cnc2n1 [Lomeguatrib] (1 nM) | 101% | 99.9% | 92.5% | 97.6% | 103% | 102% | 103% | 99% | 101% | 104% | 100% | 99.2% | 110% | 97.6% | 118% | 90.9% | 108% | 96.2% | 102%
CN1CCN(CCOc2cc(OC3CCOCC3)c3c(Nc4c(Cl)ccc5c4OCO5)ncnc3c2)CC1 [Saracatinib] (10 nM) | 93.1% | 104% | 91.6% | 94.4% | 97.6% | 96% | 103% | 101% | 92.7% | 118% | 93.5% | 103% | 94.8% | 107% | 129% | 103% | 97.8% | 93.2% | 113%
O=C(O)CCCc1ccc(N(CCCl)CCCl)cc1 [Chlorambucil] (10 nM) | 97.2% | 108% | 101% | 102% | 98.8% | 108% | 102% | 103% | 106% | 99.7% | 99.1% | 101% | 104% | 101% | 95.2% | 97.8% | 93.6% | 101% | 
Nc1nc(OCc2cc(Br)cs2)c2[nH]cnc2n1 [Lomeguatrib] (10 nM) | 101% | 94.2% | 105% | 101% | 98.9% | 97.4% | 93.5% | 105% | 98.5% | 104% | 104% | 104% | 103% | 97.3% | 69.8% | 91.8% | 109% | 101% | 105%
Nc1ncnc2c1c(COc1cccc(Cl)c1)nn2C1CCOCC1 (1 nM) | 95.4% | 95.7% | 105% | 106% | 100% | 102% | 104% | 104% | 103% | 100% | 102% | 101% | 102% | 102% | 105% | 107% | 114% | 94.7% | 109%
CC[C@]1(O)C[C@H]2CN(CCc3c([nH]c4ccccc34)[C@@](C(=O)OC)(c3cc4c(cc3OC)N(C=O)[C@H]3[C@@](O)(C(=O)OC)[C@H](OC(C)=O)[C@]5(CC)C=CCN6CC[C@]43[C@@H]65)C2)C1 [Vincristine] (1 nM) | 96.4% | 102% | 110% | 104% | 96.3% | 104% | 87.6% | 105% | 99.4% | 97.6% | 100% | 106% | 106% | 104% | 91.4% | 113% | 104% | 95.3% | 
CCCCCCCCc1ccc(CCC(N)(CO)CO)cc1 [Fingolimod] (10 nM) | 95.5% | 111% | 94.5% | 99.5% | 100% | 101% | 98.1% | 103% | 99.2% | 104% | 99.7% | 103% | 94.5% | 105% | 125% | 120% | 105% | 94.2% | 105%
Nc1ncnc2c1c(COc1cccc(Cl)c1)nn2C1CCOCC1 (10 nM) | 96.6% | 101% | 115% | 105% | 97.7% | 105% | 98.2% | 108% | 107% | 99.1% | 101% | 105% | 105% | 104% | 94.8% | 101% | 114% | 106% | 
C/C(=C\c1csc(C)n1)[C@@H]1C[C@@H]2O[C@]2(C)CCC[C@H](C)[C@H](O)[C@@H](C)C(=O)C(C)(C)[C@@H](O)CC(=O)O1 [Patupilone] (1 nM) | 103% | 105% | 106% | 111% | 103% | 101% | 97.3% | 104% | 107% | 97.3% | 104% | 106% | 108% | 107% | 99.2% | 117% | 106% | 109% | 
CN(C)CCN1C(=O)c2cccc3cc(N)cc(c23)C1=O [Amonafide] (10 nM) | 97% | 98% | 86.5% | 101% | 96.9% | 99.8% | 100% | 99.8% | 102% | 100% | 98.7% | 99.7% | 103% | 98.6% | 123% | 95% | 97.6% | 93% | 
